This is an account of results in US20250171437A1 (Agios Pharmaceuticals,Inc., priority 2022, published 2025).

This assay concerns the target T1, human PAH with the R408W mutation (A375 R408W cells) (Homo sapiens, UniProt P00439, R408W).
T1 construct: expressed in transfected cells
T1 sequence (P00439 1-452 R408W): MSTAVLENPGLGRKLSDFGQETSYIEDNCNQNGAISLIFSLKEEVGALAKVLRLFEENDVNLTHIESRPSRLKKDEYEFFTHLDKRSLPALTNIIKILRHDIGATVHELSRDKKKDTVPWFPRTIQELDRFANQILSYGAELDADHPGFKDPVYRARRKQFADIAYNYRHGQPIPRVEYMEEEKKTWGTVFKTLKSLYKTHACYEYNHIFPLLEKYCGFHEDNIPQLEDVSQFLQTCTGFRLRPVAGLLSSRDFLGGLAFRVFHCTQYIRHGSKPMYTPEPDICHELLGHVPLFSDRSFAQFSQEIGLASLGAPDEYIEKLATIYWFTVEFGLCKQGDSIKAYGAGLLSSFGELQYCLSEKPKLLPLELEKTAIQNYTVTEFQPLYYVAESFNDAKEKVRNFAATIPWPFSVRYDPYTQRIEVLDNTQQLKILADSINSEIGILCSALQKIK
Nature of the assay: Cell Based Phenylalanine Flux Assay. To be noted: 24 hrs with compound, then 20 μM sepiapterin and 800 μM 13C9,15N-Phenylalanine for 4 hours, 13C-Tyrosine by LC-MS, average where tested multiple times. A digest of the protocol: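 A375 cells stably expressing human PAH R408W treated 24 h at 37° C with a 10-point 2-fold dose curve in duplicate, 0.5% DMSO. Then 20 μM sepiapterin and 800 μM 13C9,15N-Phe added for 4 h; 13C-Tyr in media measured by LC-MS to give AC50.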

Setting [1] is: A375 cells expressing R408W PAH.

With `O=C(c1ocnc1C(F)F)N1CCc2[nH]cnc2[C@@H]1c1nc2cc(OC(F)(F)F)ccc2o1` [Example 353, (R)-(4-(difluoromethyl)oxazol-5-yl)(4-(5-(trifluoromethoxy)benzo[d]oxazol-2-yl)-6,7-dihydro-1H-imidazo[4,5-c]pyridin-5(4H)-yl)methanone], for the setting “A375 R408W cells”, the AC50 was not above 0.5 µM.

As for `O=C(c1cnn2cc(N3CCOCC3)ccc12)N1CCc2[nH]cnc2C1c1nc2cc(F)ccc2o1` (stereo not shown), the half-maximal activity concentration (AC50) under setting [1] is not below 5 µM.

Consider `Cn1ccc(C(=O)N2CCc3[nH]cnc3C2c2nc3cc(F)ccc3o2)n1` (stereo not shown), for which the AC50 under setting [1] is 1 to 5 µM.

Turning to `O=C(c1ocnc1C(F)F)N1CCc2[nH]cnc2[C@@H]1c1nc2cccc(Br)c2o1` [Example 462, (R)-(4-(7-bromobenzo[d]oxazol-2-yl)-6,7-dihydro-1H-imidazo[4,5-c]pyridin-5(4H)-yl)(4-(difluoromethyl)oxazol-5-yl)methanone], the AC50 (A375 R408W cells) is not above 0.5 µM.

In the case of `O=C(CCc1cncs1)N1CCc2[nH]cnc2C1c1nc2cc(F)ccc2o1` (stereo not shown), the concentration at half-maximal activity (AC50) under setting [1] fell in the range of 1 to 5 µM.

For the compound `COC(=O)Nc1ccc2c(C(=O)N3CCc4[nH]cnc4C3c3nc4cc(F)ccc4o3)cnn2c1` (stereo not shown), the AC50 under setting [1] was not below 5 µM.

For the compound `Cn1nc(C2CC2)nc1C(=O)N1CCc2[nH]cnc2[C@H]1c1nc2cccc(F)c2o1` [Example 497, (S)-(3-cyclopropyl-1-methyl-1H-1,2,4-triazol-5-yl)(4-(7-fluorobenzo[d]oxazol-2-yl)-6,7-dihydro-1H-imidazo[4,5-c]pyridin-5(4H)-yl)methanone], the half-maximal activity concentration (AC50) (A375 R408W cells) was in the range of 1 to 5 µM.

Take `O=C(c1cnn2cc(N3CCC(O)CC3)ccc12)N1CCc2[nH]cnc2[C@H]1c1nc2cccc(F)c2o1` [Example 371, (S)-(4-(7-fluorobenzo[d]oxazol-2-yl)-6,7-dihydro-1H-imidazo[4,5-c]pyridin-5(4H)-yl)(6-(4-hydroxypiperidin-1-yl)pyrazolo[1,5-a]pyridin-3-yl)methanone]: where the note is “A375 R408W cells”, the AC50 is 0.5 to 1 µM.

As to `Cn1cncc1-c1nc(C(F)F)c(C(=O)N2CCc3[nH]cnc3[C@@H]2c2nc3ccccc3o2)o1` [Example 763, (R)-(4-(benzo[d]oxazol-2-yl)-6,7-dihydro-1H-imidazo[4,5-c]pyridin-5(4H)-yl)(4-(difluoromethyl)-2-(1-methyl-1H-imidazol-5-yl)oxazol-5-yl)methanone], the AC50 (A375 R408W cells) is 1 to 5 µM.

Turning to `Cn1cc(-c2nnc(C(=O)N3CCc4[nH]cnc4[C@@H]3c3nc4cc(F)ccc4o3)o2)c(C(F)(F)F)n1` [Example 117, (R)-(4-(5-fluorobenzo[d]oxazol-2-yl)-6,7-dihydro-1H-imidazo[4,5-c]pyridin-5(4H)-yl)(5-(1-methyl-3-(trifluoromethyl)-1H-pyrazol-4-yl)-1,3,4-oxadiazol-2-yl)methanone], the AC50 (A375 R408W cells) lay in the range of 1 to 5 µM.

Turning to `COCc1ccc2c(C(=O)N3CCc4[nH]cnc4[C@H]3c3nc4cccc(F)c4o3)cnn2c1` [Example 265, (S)-(4-(7-fluorobenzo[d]oxazol-2-yl)-6,7-dihydro-1H-imidazo[4,5-c]pyridin-5(4H)-yl)(6-(methoxymethyl)pyrazolo[1,5-a]pyridin-3-yl)methanone], the AC50 (A375 R408W cells) was 0.5 to 1 µM.

As for `O=C(c1ccnn1C(F)F)N1CCc2[nH]cnc2[C@H]1c1nc2c(F)cc(F)cc2o1` [Example 489, (S)-(4-(4,6-difluorobenzo[d]oxazol-2-yl)-6,7-dihydro-1H-imidazo[4,5-c]pyridin-5(4H)-yl)(1-(difluoromethyl)-1H-pyrazol-5-yl)methanone], the AC50 (A375 R408W cells) was in the range of 0.5 to 1 µM.

Regarding `COc1cccc2oc([C@H]3c4nc[nH]c4CCN3C(=O)c3nnc(-c4ccn(C)n4)o3)nc12` [Example 640, (R)-(4-(4-methoxybenzo[d]oxazol-2-yl)-6,7-dihydro-1H-imidazo[4,5-c]pyridin-5(4H)-yl)(5-(1-methyl-1H-pyrazol-3-yl)-1,3,4-oxadiazol-2-yl)methanone], the concentration at half-maximal activity (AC50) (A375 R408W cells) lay in the range of 1 to 5 µM.

With `Cc1cccc2nc(C3c4nc[nH]c4CCN3C(=O)c3ncnn3C)oc12` (stereo not shown), under setting [1], the AC50 lay in the range of 1 to 5 µM.

Turning to `O=C(CCc1cnco1)N1CCc2[nH]cnc2C1c1nc2cc(F)ccc2o1` (stereo not shown), the AC50 under setting [1] fell in the range of 1 to 5 µM.

As to `O=C(c1nnc(-c2cnn(C3CCC3)c2)o1)N1CCc2[nH]cnc2[C@H]1c1nc2c(F)ccc(F)c2o1` [Example 811, (S)-(5-(1-cyclobutyl-1H-pyrazol-4-yl)-1,3,4-oxadiazol-2-yl)(4-(4,7-difluorobenzo[d]oxazol-2-yl)-6,7-dihydro-1H-imidazo[4,5-c]pyridin-5(4H)-yl)methanone], the AC50 (A375 R408W cells) was not above 0.5 µM.

For the compound `Cn1ccc(-c2nnc(C(=O)N3CCc4[nH]cnc4[C@@H]3c3nc4cccc(C(F)(F)F)c4o3)o2)n1` [Example 831, (R)-(5-(1-methyl-1H-pyrazol-3-yl)-1,3,4-oxadiazol-2-yl)(4-(7-(trifluoromethyl)benzo[d]oxazol-2-yl)-6,7-dihydro-1H-imidazo[4,5-c]pyridin-5(4H)-yl)methanone], the AC50 (A375 R408W cells) was in the range of 0.5 to 1 µM.

Take `Cc1cnn(C)c1-c1nnc(C(=O)N2CCc3[nH]cnc3[C@H]2c2nc3cc(F)ccc3o2)o1` [Example 119, (S)-(5-(1,4-dimethyl-1H-pyrazol-5-yl)-1,3,4-oxadiazol-2-yl)(4-(5-fluorobenzo[d]oxazol-2-yl)-6,7-dihydro-1H-imidazo[4,5-c]pyridin-5(4H)-yl)methanone]: the half-maximal activity concentration (AC50) (A375 R408W cells) fell in the range of 0.5 to 1 µM.

In the case of `Cc1cccc2nc([C@@H]3c4nc[nH]c4CCN3C(=O)c3ccnn3C(F)F)oc12` [Example 919, (S)-(1-(difluoromethyl)-1H-pyrazol-5-yl)(4-(7-methylbenzo[d]oxazol-2-yl)-6,7-dihydro-1H-imidazo[4,5-c]pyridin-5(4H)-yl)methanone], the AC50 (A375 R408W cells) is not above 0.5 µM.

Consider `O=C(c1nc(C(F)(F)F)co1)N1CCc2nc[nH]c2C1c1nc2cc(F)ccc2o1` (stereo not shown), for which the AC50 under setting [1] is 1 to 5 µM.

For the compound `C[C@@H](O)c1nc(C(F)F)c(C(=O)N2CCc3[nH]cnc3[C@@H]2c2nc3c(F)cccc3o2)o1` [Example 230, (4-(difluoromethyl)-2-((R)-1-hydroxyethyl)oxazol-5-yl)((R)-4-(4-fluorobenzo[d]oxazol-2-yl)-6,7-dihydro-1H-imidazo[4,5-c]pyridin-5(4H)-yl)methanone], the half-maximal activity concentration (AC50) (A375 R408W cells) lay in the range of 1 to 5 µM.

On to `CC(C)(O)c1nc(C(F)F)c(C(=O)N2CCc3[nH]cnc3[C@@H]2c2nc3c(C(F)(F)F)cccc3o2)o1` [Example 464, (R)-(4-(difluoromethyl)-2-(2-hydroxypropan-2-yl)oxazol-5-yl)(4-(4-(trifluoromethyl)benzo[d]oxazol-2-yl)-6,7-dihydro-1H-imidazo[4,5-c]pyridin-5(4H)-yl)methanone], for which the AC50 (A375 R408W cells) is 0.5 to 1 µM.

As for `Cc1cc(F)c2oc([C@H]3c4nc[nH]c4CCN3C(=O)c3oc(C(C)(C)O)nc3C(F)F)nc2c1` [Example 500, (R)-(4-(difluoromethyl)-2-(2-hydroxypropan-2-yl)oxazol-5-yl)(4-(7-fluoro-5-methylbenzo[d]oxazol-2-yl)-6,7-dihydro-1H-imidazo[4,5-c]pyridin-5(4H)-yl)methanone], where the note is “A375 R408W cells”, the AC50 was not above 0.5 µM.

As to `O=C(c1ocnc1C(F)F)N1Cc2[nH]cnc2[C@@H]1c1nc2ccccc2o1` [Example 922, (R)-(4-(benzo[d]oxazol-2-yl)-4,6-dihydropyrrolo[3,4-d]imidazol-5(1H)-yl)(4-(difluoromethyl)oxazol-5-yl)methanone], the concentration at half-maximal activity (AC50) (A375 R408W cells) lay in the range of 1 to 5 µM.

For `O=C(c1cnn2cc(CN3CC(F)C3)ccc12)N1CCc2[nH]cnc2C1c1nc2cc(F)ccc2o1` (stereo not shown), the AC50 under setting [1] was 1 to 5 µM.
